# Molecular target: T1, ΔF508-CFTR (Homo sapiens, UniProt P13569, DEL508-508)
# T1 construct: expressed in transfected cells
# Assay: Membrane potential optical assay (FRET voltage-sensor dyes, VIPR), identification of potentiator compounds
# Type: cell-based
# Details: Table 3; assay not given
# From the text: The optical membrane potential assay utilized voltage-sensitive FRET sensors described by Gonzalez and Tsien (See Gonzalez, J. E. and R. Y. Tsien (1995) “Voltage sensing by fluorescence resonance energy transfer in single cells” Biophys J 69(4): 1272-80, and Gonzalez, J. E. and R. Y. Tsien (1997) “Improved indicators of cell membrane potential that use fluorescence resonance energy transfer” Chem Biol 4(4): 269-77) in combination with instrumentation for measuring fluorescence changes such as the Voltage/Ion Probe Reader (VIPR) (See […]. Oades, et al. (1999) “Cell-based assays and instrumentation for screening ion-channel targets” Drug Discov Today 4(9): 431-439). These voltage sensitive assays are based on the change in fluorescence resonant energy transfer (FRET) between the membrane-soluble, voltage-sensitive dye, DiSBAC2(3), and a fluorescent phospholipid, CC2-DMPE, which is attached to the outer leaflet of the plasma membrane and acts as a FRET donor. Changes in membrane potential (Vm) cause the negatively charged DiSBAC2(3) to redistribute across the plasma membrane and the amount of energy transfer from CC2-DMPE changes accordingly. The changes in fluorescence emission were monitored using VIPRTM II, which is an integrated liquid handler and fluorescent detector designed to conduct cell-based screens in 96- or 384-well microtiter plates. To identify potentiators of ΔF508-CFTR, a double-addition HTS assay format was developed. During the first addition, a Cl^--free medium with or without test compound was added to each well. […] (in mM) NaCl 160, KCl 4.5, CaCl2 2, MgCl2 1, HEPES 10, pH 7.4 with NaOH. • Chloride-free bath solution: Chloride salts in Bath Solution #1 are substituted with gluconate salts. • CC2-DMPE: Prepared as a 10 mM stock solution in DMSO and stored at -20° C. • DiSBAC2(3): Prepared as a 10 mM stock in DMSO and stored at -20° C. NIH3T3 mouse fibroblasts stably expressing ΔF508-CFTR are used for optical measurements of membrane potential. […] For all optical assays, the cells were seeded at 30,000/well in 384-well matrigel-coated plates and cultured for 2 hrs at 37° C. before culturing at 27° C. for 24 hrs. for the potentiator assay.
# T1 sequence (P13569 with tags, fused parts or gaps DEL508-508): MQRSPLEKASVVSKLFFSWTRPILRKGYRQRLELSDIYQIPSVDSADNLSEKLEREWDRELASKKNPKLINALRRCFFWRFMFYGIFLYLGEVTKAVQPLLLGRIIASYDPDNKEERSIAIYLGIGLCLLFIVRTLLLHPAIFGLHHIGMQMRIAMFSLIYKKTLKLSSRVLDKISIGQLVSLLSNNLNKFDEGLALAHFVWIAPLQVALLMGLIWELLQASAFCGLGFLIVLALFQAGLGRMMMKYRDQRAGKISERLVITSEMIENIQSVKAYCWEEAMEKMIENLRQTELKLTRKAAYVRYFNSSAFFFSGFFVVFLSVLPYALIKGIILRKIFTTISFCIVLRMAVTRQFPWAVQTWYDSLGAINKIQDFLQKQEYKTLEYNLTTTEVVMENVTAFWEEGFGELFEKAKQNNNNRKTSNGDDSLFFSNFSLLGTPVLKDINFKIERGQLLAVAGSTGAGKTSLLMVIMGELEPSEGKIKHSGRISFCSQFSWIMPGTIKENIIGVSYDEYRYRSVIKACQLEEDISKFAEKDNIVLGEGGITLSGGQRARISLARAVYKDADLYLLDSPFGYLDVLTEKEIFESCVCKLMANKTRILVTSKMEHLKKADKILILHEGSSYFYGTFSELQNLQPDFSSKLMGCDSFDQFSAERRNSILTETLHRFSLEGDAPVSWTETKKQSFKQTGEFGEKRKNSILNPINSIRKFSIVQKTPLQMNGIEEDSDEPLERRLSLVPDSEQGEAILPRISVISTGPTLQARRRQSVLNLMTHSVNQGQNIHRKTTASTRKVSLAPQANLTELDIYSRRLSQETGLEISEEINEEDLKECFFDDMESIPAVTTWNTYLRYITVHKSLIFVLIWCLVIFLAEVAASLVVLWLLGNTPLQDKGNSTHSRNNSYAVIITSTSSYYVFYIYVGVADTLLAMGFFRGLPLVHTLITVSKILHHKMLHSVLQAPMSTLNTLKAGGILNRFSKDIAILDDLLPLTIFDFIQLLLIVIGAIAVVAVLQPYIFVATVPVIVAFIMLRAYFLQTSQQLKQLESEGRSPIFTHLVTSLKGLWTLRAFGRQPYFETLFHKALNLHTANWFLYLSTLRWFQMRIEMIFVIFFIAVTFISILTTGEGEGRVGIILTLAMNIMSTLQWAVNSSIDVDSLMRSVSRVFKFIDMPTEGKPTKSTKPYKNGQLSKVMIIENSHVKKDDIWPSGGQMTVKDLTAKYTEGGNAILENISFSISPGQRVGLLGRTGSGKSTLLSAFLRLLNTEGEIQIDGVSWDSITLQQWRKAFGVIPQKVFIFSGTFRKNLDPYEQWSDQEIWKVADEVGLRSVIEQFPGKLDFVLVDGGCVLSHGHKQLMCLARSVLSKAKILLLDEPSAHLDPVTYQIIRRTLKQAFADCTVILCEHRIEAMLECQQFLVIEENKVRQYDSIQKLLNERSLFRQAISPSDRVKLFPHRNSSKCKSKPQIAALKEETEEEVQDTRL
row,SMILES,EC50
1,"CCCc1ccc(NC(=O)c2c[nH]c3ccccc3c2=O)cc1 [Compound 226, 4-oxo-N-(4-propylphenyl)-1H-quinoline-3-carboxamide]",< 10 µM

# Same assay, conditions: Table 3; assay not given; read-out: % Activity (% Efficacy, relative efficacy)
row,SMILES,Emax
1,"CC(C)(C)OC(=O)[C@H]1CCCN1c1ccc(NC(=O)c2c[nH]c3ccccc3c2=O)c(C(F)(F)F)c1 [Compound 540, (R)-tert-butyl 1-(4-(4-oxo-1,4-dihydroquinoline-3-carboxamido)-3-(trifluoromethyl)phenyl)pyrrolidine-2-carboxylate]",> 100%
2,"CC(C)(C)c1cc(C(C)(C)C)c(NC(=O)c2c[nH]c3ccc(S(=O)(=O)N4CCCC4)cc3c2=O)cc1O [Compound 255, N-(5-hydroxy-2,4-ditert-butyl-phenyl)-4-oxo-6-pyrrolidin-1-ylsulfonyl-1H-quinoline-3-carboxamide]",25 to 100%
3,"CC(C)(C)c1cc(C(C)(C)C)c(NC(=O)c2c[nH]c3c(C(F)(F)F)cccc3c2=O)cc1O [Compound 580, N-(5-hydroxy-2,4-ditert-butyl-phenyl)-4-oxo-8-(trifluoromethyl)-1H-quinoline-3-carboxamide]",< 25%
4,"O=C(Nc1ccccc1-c1ccccc1)c1c[nH]c2cc(C(F)(F)F)ccc2c1=O [Compound 469, 4-oxo-N-(2-phenylphenyl)-7-(trifluoromethyl)-1H-quinoline-3-carboxamide]",25 to 100%
5,"O=C(Nc1ccccc1-c1ccccc1F)c1c[nH]c2ccccc2c1=O [Compound 313, N-[2-(2-fluorophenyl)phenyl]-4-oxo-1H-quinoline-3-carboxamide]",25 to 100%
6,"O=C(Nc1ccc(C(F)(F)F)cc1Cl)c1c[nH]c2ccc(F)cc2c1=O [Compound 636, N-[2-chloro-4-(trifluoromethyl)phenyl]-6-fluoro-4-oxo-1H-quinoline-3-carboxamide]",< 25%
7,"CC(C)(C)c1cc(C(C)(C)C)c(NC(=O)c2c[nH]c3c(C#N)cccc3c2=O)cc1O [Compound 505, 8-cyano-N-(5-hydroxy-2,4-ditert-butyl-phenyl)-4-oxo-1H-quinoline-3-carboxamide]",< 25%
8,"CC(=O)N1CC2(CC2)c2ccc(NC(=O)c3c[nH]c4ccccc4c3=O)cc21 [Compound 175, 4-Oxo-1,4-dihydro-quinoline-3-carboxylic acid N-(1′-Acetyl-1′,2′-dihydrospiro[cyclopropane-1,3′-3H-indol]-6′-yl)-amide]",25 to 100%
9,"O=C(Nc1cc(N2CCCCC2)cc(C(F)(F)F)c1)c1c[nH]c2ccccc2c1=O [Compound 488, 4-oxo-N-[3-(1-piperidyl)-5-(trifluoromethyl)phenyl]-1H-quinoline-3-carboxamide]",25 to 100%
10,"COC(=O)Nc1cc(NC(=O)c2c[nH]c3ccccc3c2=O)ccc1C(C)(C)C [Compound 14, [5-[(4-oxo-1H-quinolin-3-yl)carbonylamino]-2-tert-butyl-phenyl]aminoformic acid methyl ester]",25 to 100%
11,"Cc1cccc2[nH]cc(C(=O)Nc3ccc(N4CC[C@@H](F)C4)cc3C(F)(F)F)c(=O)c12 [Compound 541, (R)-N-(4-(3-fluoropyrrolidin-1-yl)-2-(trifluoromethyl)phenyl)-5-methyl-4-oxo-1,4-dihydroquinoline-3-carboxamide]",25 to 100%
12,"O=C(Nc1ccccc1-c1nc(-c2ccc(Cl)cc2)no1)c1c[nH]c2ccccc2c1=O [Compound 102, N-[2-[3-(4-chlorophenyl)-1,2,4-oxadiazol-5-yl]phenyl]-4-oxo-1H-quinoline-3-carboxamide]",25 to 100%
13,"CC1CCN(c2ccc(NC(=O)c3c[nH]c4ccccc4c3=O)c(C(F)(F)F)c2)C1 (centres unmarked) [Compound 555, N-[4-(3-methylpyrrolidin-1-yl)-2-(trifluoromethyl)phenyl]-4-oxo-1H-quinoline-3-carboxamide]",25 to 100%
14,"COc1ccccc1-c1ccccc1NC(=O)c1c[nH]c2ccccc2c1=O [Compound 355, N-[2-(2-methoxyphenyl)phenyl]-4-oxo-1H-quinoline-3-carboxamide]",25 to 100%
15,"O=C(Nc1cc2[nH]ccc2cc1C(=O)N1CCCCC1)c1c[nH]c2ccccc2c1=O [Compound 148, 4-Oxo-N-[5-(1-piperidylcarbonyl)-1H-indol-6-yl]-1H-quinoline-3-carboxamide]",25 to 100%
16,"O=C(Nc1ccccc1N1CCOCC1)c1c[nH]c2ccccc2c1=O [Compound 4, N-(2-morpholinophenyl)-4-oxo-1H-quinoline-3-carboxamide]",25 to 100%
17,"CC(C)(C)c1ccc(NC(=O)c2cnc3ccccc3c2OCc2ccccc2)cc1O [Compound 275, 4-Benzyloxy-N-(3-hydroxy-4-tert-butyl-phenyl)-quinoline-3-carboxamide]",25 to 100%
18,"C[C@@H]1CCCN1c1ccc(NC(=O)c2c[nH]c3ccc(F)cc3c2=O)c(C(F)(F)F)c1 [Compound 684, (R)-6-fluoro-N-(4-(2-methylpyrrolidin-1-yl)-2-(trifluoromethyl)phenyl)-4-oxo-1,4-dihydroquinoline-3-carboxamide]",25 to 100%

# The remaining lines, values ahead:
row,Emax,SMILES
1,25 to 100%,"CC1(C)CCOc2cc(NC(=O)c3c[nH]c4ccccc4c3=O)ccc21 [Compound 204, N-(4,4-dimethylchroman-7-yl)-4-oxo-1H-quinoline-3-carboxamide]"
2,< 25%,"O=C(Nc1ccc2ncccc2c1)c1c[nH]c2ccccc2c1=O [Compound 280, 4-oxo-N-(6-quinolyl)-1H-quinoline-3-carboxamide]"
3,< 25%,"COc1ccc(NC(C)=O)cc1NC(=O)c1c[nH]c2ccccc2c1=O [Compound 250, N-(5-acetylamino-2-methoxy-phenyl)-4-oxo-1H-quinoline-3-carboxamide]"
4,25 to 100%,"CCCc1ccccc1NC(=O)c1c[nH]c2ccccc2c1=O [Compound 16, 4-oxo-N-(2-propylphenyl)-1H-quinoline-3-carboxamide]"
5,25 to 100%,"Cc1ccc(NC(=O)c2c[nH]c3ccccc3c2=O)c(C)c1 [Compound 281, N-(2,4-dimethylphenyl)-4-oxo-1H-quinoline-3-carboxamide]"
6,25 to 100%,"O=C(Nc1ccc(OC(F)(F)F)cc1)c1c[nH]c2ccccc2c1=O [Compound 176, 4-oxo-N-[4-(trifluoromethoxy)phenyl]-1H-quinoline-3-carboxamide]"
7,25 to 100%,"CCOC(=O)Cc1c[nH]c2cc(NC(=O)c3c[nH]c4ccccc4c3=O)ccc12 [Compound 207, 2-[6-[(4-oxo-1H-quinolin-3-yl)carbonylamino]-1H-indol-3-yl]acetic acid ethyl ester]"
8,25 to 100%,"CCC(C)c1c[nH]c2cc(NC(=O)c3c[nH]c4ccccc4c3=O)ccc12 (centres unmarked) [Compound 259, 4-oxo-N-(3-sec-butyl-1H-indol-6-yl)-1H-quinoline-3-carboxamide]"
9,25 to 100%,"CC(C)(C)c1ccc(NC(=O)c2c[nH]c3ccccc3c2=O)cc1 [Compound 448, 4-oxo-N-(4-tert-butylphenyl)-1H-quinoline-3-carboxamide]"
10,25 to 100%,"CCc1ccc(NC(=O)c2c[nH]c3ccccc3c2=O)cc1NC(=O)OC [Compound 129, [2-ethyl-5-[(4-oxo-1H-quinolin-3-yl)carbonylamino]phenyl]aminoformic acid methyl ester]"
11,25 to 100%,"Cc1ccc2cccc(NC(=O)c3c[nH]c4ccccc4c3=O)c2n1 [Compound 364, N-(2-methyl-8-quinolyl)-4-oxo-1H-quinoline-3-carboxamide]"
12,25 to 100%,"COc1cccc(NC(=O)c2c[nH]c3ccccc3c2=O)c1 [Compound 408, N-(3-methoxyphenyl)-4-oxo-1H-quinoline-3-carboxamide]"
13,25 to 100%,"Cc1ccc(C)n1-c1ccccc1NC(=O)c1c[nH]c2ccccc2c1=O [Compound 297, N-[2-(2,5-dimethyl-1H-pyrrol-1-yl)phenyl]-4-oxo-1H-quinoline-3-carboxamide]"
14,25 to 100%,"Cc1ccc(N)cc1NC(=O)c1c[nH]c2ccccc2c1=O [Compound 94, N-(5-Amino-2-methyl-phenyl)-4-oxo-1H-quinoline-3-carboxamide]"
15,25 to 100%,"Nc1cccc(NC(=O)c2c[nH]c3ccccc3c2=O)c1 [Compound 431, N-(3-aminophenyl)-4-oxo-1H-quinoline-3-carboxamide]"
16,25 to 100%,"CC(C)(C)c1ccc(NC(=O)c2c[nH]c3ccccc3c2=O)cc1S(N)(=O)=O [Compound 268, 4-oxo-N-(3-sulfamoyl-4-tert-butyl-phenyl)-1H-quinoline-3-carboxamide]"
17,25 to 100%,"C#Cc1ccc(NC(=O)c2c[nH]c3ccccc3c2=O)cc1 [Compound 332, N-(4-ethynylphenyl)-4-oxo-1H-quinoline-3-carboxamide]"
18,25 to 100%,"CCCCc1ccccc1NC(=O)c1c[nH]c2ccccc2c1=O [Compound 336, N-(2-butylphenyl)-4-oxo-1H-quinoline-3-carboxamide]"
19,25 to 100%,"CCCc1ccc(NC(=O)c2c[nH]c3ccccc3c2=O)cc1 [Compound 226, 4-oxo-N-(4-propylphenyl)-1H-quinoline-3-carboxamide]"

# Reference: patent US8802700B2 (Vertex Pharmaceuticals Incorporated, priority 2010, dated 2014)
